Activity calls are given as the source filed them. The calls are words filed in the database; no cut-off is given here.
Legend:
Assay type in all cases: functional, cell-based
HepG2 = assay: Antiproliferative against human HepG2 cells after 48 hrs by MTT assay; details: HepG2, 48 h
A549 [1] = assay: Antiproliferative against human A549 cells after 48 hrs by MTT assay; details: A549, 48 h
MCF7 = assay: Antiproliferative against human MCF7 cells after 48 hrs by MTT assay; details: MCF7, 48 h
A549 [2] = assay: Cell cycle arrest in human A549 cells assessed as accumulation at G2/M phase after 48 hrs by flow cytometric analysis
A549 [3] = assay: Cell cycle arrest in human A549 cells assessed as accumulation at G1 phase after 48 hrs by flow cytometric analysis
A549 [4] = assay: Induction of reactive oxygen species generation in human A549 cells after 48 hrs by […]
A549 [5] = assay: Induction of apoptosis in human A549 cells assessed as […] cleavage after 48 hrs by Western blot analysis
A549 [6] = assay: Induction of reactive oxygen species generation in human A549 cells at 200 uM after 48 hrs by […]

CCCOc1cccc2[nH]c(C(=O)OC)cc12
IC50 (HepG2): > 200 µM | IC50 (A549 [1]): > 200 µM | IC50 (MCF7): > 200 µM

COC(=O)c1cc2c(OCC3CCCCC3)cc(OC)cc2[nH]1
IC50 (HepG2): > 200 µM | IC50 (A549 [1]): 107 µM | IC50 (MCF7): 81.1 µM

CCCCOc1cc(OC)cc2[nH]c(C(=O)OC)cc12
IC50 (HepG2): > 200 µM | IC50 (A549 [1]): 40.4 µM | IC50 (MCF7): 41.8 µM

CCCCOc1cccc2[nH]c(C(=O)OC)cc12
IC50 (HepG2): > 200 µM | IC50 (A549 [1]): 87.1 µM | IC50 (MCF7): > 200 µM

COC(=O)c1cc2ccc(N(C)C)cc2[nH]1
IC50 (HepG2): > 200 µM | IC50 (A549 [1]): > 200 µM | IC50 (MCF7): > 200 µM

COC(=O)c1cc2c(OC)cccc2[nH]1
IC50 (HepG2): > 200 µM | IC50 (A549 [1]): > 200 µM | IC50 (MCF7): > 200 µM

COC(=O)c1cc2c(OCC(C)C)cc(NC(C)=O)cc2[nH]1
IC50 (HepG2): > 200 µM | IC50 (A549 [1]): > 200 µM | IC50 (MCF7): > 200 µM

CCCOc1cc(OC)cc2[nH]c(C(=O)OC)cc12
IC50 (HepG2): > 200 µM | IC50 (A549 [1]): 25.4 µM | IC50 (MCF7): 18.8 µM

COc1cc([C@@H]2c3cc4c(cc3[C@@H](O[C@@H]3O[C@@H]5CO[C@@H](C)O[C@H]5[C@H](O)[C@H]3O)[C@H]3COC(=O)[C@H]23)OCO4)cc(OC)c1O [ETOPOSIDE]
IC50 (HepG2): 13.7 µM | IC50 (A549 [1]): 242 µM | IC50 (MCF7): 81.1 µM

COC(=O)c1cc2c(OCC(C)C)cc(N)cc2[nH]1
IC50 (HepG2): 68.9 µM | IC50 (A549 [1]): 11.4 µM | IC50 (MCF7): 97.4 µM

CCCCOc1c(OCC)ccc2[nH]c(C(=O)OC)cc12
IC50 (HepG2): 168 µM | IC50 (A549 [1]): 102 µM | IC50 (MCF7): > 200 µM

COC(=O)c1cc2c(OCC3CCCCC3)cc(N)cc2[nH]1
Activity (A549 [2]): Dose-dependent effect | Activity (A549 [3]): Dose-dependent effect | IC50 (HepG2): 14.5 µM | IC50 (A549 [1]): 3.98 µM | IC50 (MCF7): 3.78 µM | Activity (A549 [4]): Dose-dependent effect | Activity (A549 [5]): Dose-dependent effect

COC(=O)c1cc2c(OC(C)C)cccc2[nH]1
IC50 (HepG2): > 200 µM | IC50 (A549 [1]): > 200 µM | IC50 (MCF7): > 200 µM

COC(=O)c1cc2c(OCC3CCCCC3)cc(NC(C)=O)cc2[nH]1
IC50 (HepG2): > 200 µM | IC50 (A549 [1]): > 200 µM | IC50 (MCF7): > 200 µM

CCCOc1c(OCC)ccc2[nH]c(C(=O)OC)cc12
IC50 (HepG2): 63.5 µM | IC50 (A549 [1]): > 200 µM | IC50 (MCF7): > 200 µM

COC(=O)c1cc2c(OCc3ccc(F)cc3)cc(N)cc2[nH]1
IC50 (HepG2): > 200 µM | IC50 (A549 [1]): > 200 µM | IC50 (MCF7): > 200 µM

COC(=O)c1cc2ccc(N)cc2[nH]1
IC50 (HepG2): > 200 µM | IC50 (A549 [1]): > 200 µM | IC50 (MCF7): > 200 µM

COC(=O)c1cc2c(OCC(C)C)cccc2[nH]1
IC50 (HepG2): > 200 µM | IC50 (A549 [1]): 51.4 µM | IC50 (MCF7): > 200 µM

C=CCOc1cc(N)cc2[nH]c(C(=O)OC)cc12
IC50 (HepG2): > 200 µM | IC50 (A549 [1]): > 200 µM | IC50 (MCF7): > 200 µM

COC(=O)c1cc2c(OCC3CCCCC3)cccc2[nH]1
IC50 (HepG2): > 200 µM | IC50 (A549 [1]): 31.1 µM | IC50 (MCF7): 89.8 µM

O=C(O)c1cc(C(=O)O)c2c(n1)C(=O)C(=O)c1cc(C(=O)O)[nH]c1-2 [PYRROLOQUINOLINE QUINONE]
IC50 (HepG2): 45.7 µM | IC50 (A549 [1]): 750 µM | IC50 (MCF7): 25.5 µM | Activity (A549 [6]): Active

COC(=O)c1cc2c(O)cc(N)cc2[nH]1
IC50 (HepG2): > 200 µM | IC50 (A549 [1]): > 200 µM | IC50 (MCF7): > 200 µM

CC(=O)O[C@H]1C(=O)[C@@]2(C)[C@H]([C@H](OC(=O)c3ccccc3)[C@]3(O)C[C@H](OC(=O)[C@H](O)[C@@H](NC(=O)c4ccccc4)c4ccccc4)C(C)=C1C3(C)C)[C@]1(OC(C)=O)CO[C@@H]1C[C@@H]2O [PACLITAXEL]
IC50 (HepG2): 0.0673 µM | IC50 (A549 [1]): 1.53 µM | IC50 (MCF7): 0.0258 µM

CCOc1ccc2[nH]c(C(=O)OC)cc2c1OCC1CCCCC1
IC50 (HepG2): > 200 µM | IC50 (A549 [1]): 65.2 µM | IC50 (MCF7): > 200 µM

COC(=O)c1cc2c(OC(C)C)cc(OC)cc2[nH]1
Activity (A549 [2]): Dose-dependent effect | Activity (A549 [3]): Dose-dependent effect | IC50 (HepG2): 3.8 µM | IC50 (A549 [1]): 24.1 µM | IC50 (MCF7): 6.38 µM | Activity (A549 [4]): Dose-dependent effect | Activity (A549 [5]): Dose-dependent effect

COC(=O)c1cc2c(OCc3ccccc3)cc(N)cc2[nH]1
IC50 (HepG2): > 200 µM | IC50 (A549 [1]): > 200 µM | IC50 (MCF7): > 200 µM

— ChEMBL document CHEMBL3286297, “Design, synthesis and antiproliferative activity of a novel class of indole-2-carboxylate derivatives” (Eur J Med Chem, 2014)
